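Interpolation was linear, between the two tested concentrations surrounding the appropriate level; five concentrations were tested over 48 hours in 96-well plates. Here, GI50 denotes the concentration required for 50% inhibition of growth.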 Active and inactive are the calls of the source. Rule as the data show it: active = GI50 up to about 1.1 µM and inactive = higher. Residues, ends and D or L forms follow the SMILES beside them. *: point of attachment. Bn = c1ccc(C*)cc1
Columns and labels:
Assay in all cases: growth of human tumour cells (NCI), 48 h
A498 = test system: A498
A549 = test system: A549
ACHN = test system: ACHN
COLO 205 = test system: COLO 205
HCT-116 = test system: HCT-116
HOP-62 = test system: HOP-62
IGROV-1 = test system: IGROV-1
M14 = test system: M14
MOLT-4 = test system: MOLT-4
NCI-H226 = test system: NCI-H226
OVCAR-3 = test system: OVCAR-3
PC-3 = test system: PC-3
SF-268 = test system: SF-268
SF-295 = test system: SF-295
SF-539 = test system: SF-539
SK-MEL-5 = test system: SK-MEL-5
SK-OV-3 = test system: SK-OV-3
SN12C = test system: SN12C
MCF7 = test system: MCF7

SMILES | GI50 (A498) | GI50 (A549) | GI50 (ACHN) | GI50 (COLO 205) | GI50 (HCT-116) | GI50 (HOP-62) | GI50 (IGROV-1) | GI50 (M14) | GI50 (MOLT-4) | GI50 (NCI-H226) | GI50 (OVCAR-3) | GI50 (PC-3) | GI50 (SF-268) | GI50 (SF-295) | GI50 (SF-539) | GI50 (SK-MEL-5) | GI50 (SK-OV-3) | GI50 (SN12C) | GI50 (MCF7)
COC(=O)C(CC(C)C)NC(=O)C(N)Cc1ccc(OCc2ccccc2)cc1 (stereo unspecified) (H-Tyr(Bn)-Leu-OMe; configuration not given here) | > 10 µM (inactive) | > 10 µM (inactive) | > 10 µM (inactive) | > 10 µM (inactive) | > 10 µM (inactive) | > 10 µM (inactive) | > 10 µM (inactive) | > 10 µM (inactive) | > 10 µM (inactive) | > 10 µM (inactive) | > 10 µM (inactive) | > 10 µM (inactive) | > 10 µM (inactive) | > 10 µM (inactive) | > 10 µM (inactive) | > 10 µM (inactive) | > 10 µM (inactive) | > 10 µM (inactive) | 
Cc1ccc(S(=O)(=O)Nn2c(S)c(C#N)c(-c3ccc(N(C)C)cc3)c(C#N)c2=O)cc1 | 17.3 µM (inactive) | 40.5 µM (inactive) | 20.6 µM (inactive) | 22 µM (inactive) | 28.2 µM (inactive) |  | 10.8 µM (inactive) | 31.2 µM (inactive) | 23.4 µM (inactive) | 2.16 µM (inactive) |  |  |  | 34.2 µM (inactive) | 19 µM (inactive) | 17.7 µM (inactive) | 48.8 µM (inactive) | 26.4 µM (inactive) | 30.8 µM (inactive)
C=C1C(=O)O[C@@H]2[C@H]1CC[C@H](C)[C@]1(O)CCC(=O)[C@@]21C [CORONOPILIN] |  | > 10 µM (inactive) |  | > 10 µM (inactive) | > 10 µM (inactive) | > 10 µM (inactive) | > 10 µM (inactive) |  | > 10 µM (inactive) | > 10 µM (inactive) | > 10 µM (inactive) | > 10 µM (inactive) | > 10 µM (inactive) | > 10 µM (inactive) | > 10 µM (inactive) | > 10 µM (inactive) | > 10 µM (inactive) | > 10 µM (inactive) | > 10 µM (inactive)
CN(C)CCNc1ccc([N+](=O)[O-])c2nc3ccccc3c(N)c12 |  | 0.439 µM (active) | 0.313 µM (active) | 0.182 µM (active) | 0.261 µM (active) | 2.26 µM (inactive) | 0.456 µM (active) | 0.574 µM (active) | 0.434 µM (active) | > 10 µM (inactive) | 0.532 µM (active) | 0.405 µM (active) | 0.507 µM (active) | 0.711 µM (active) | 0.536 µM (active) | 1.41 µM (inactive) | 0.152 µM (active) | 0.783 µM (active) | > 10 µM (inactive)
O=C(/C=C(\C(=O)c1cccs1)c1cccs1)c1ccc(C(=O)/C=C(\C(=O)c2cccs2)c2cccs2)cc1 |  | > 100 µM (inactive) | > 100 µM (inactive) | > 100 µM (inactive) | > 100 µM (inactive) | > 100 µM (inactive) | > 100 µM (inactive) | > 100 µM (inactive) | > 100 µM (inactive) | > 100 µM (inactive) |  | > 100 µM (inactive) | > 100 µM (inactive) | > 100 µM (inactive) | > 100 µM (inactive) | > 100 µM (inactive) | > 100 µM (inactive) | > 100 µM (inactive) | > 100 µM (inactive)
CC1(C)O[C@@H](CP(c2cccc3ccccc23)c2cccc3ccccc23)[C@H](CP(c2cccc3ccccc23)c2cccc3ccccc23)O1 |  | > 100 µM (inactive) | > 100 µM (inactive) | > 100 µM (inactive) | > 100 µM (inactive) | > 100 µM (inactive) | > 100 µM (inactive) | > 100 µM (inactive) | > 100 µM (inactive) | > 100 µM (inactive) | > 100 µM (inactive) | > 100 µM (inactive) | > 100 µM (inactive) | > 100 µM (inactive) |  | > 100 µM (inactive) | > 100 µM (inactive) | > 100 µM (inactive) | > 100 µM (inactive)
